In patent US20080312197A1, “PHARMACEUTICAL PRODUCTS CONTAINING HORMONES AND A 25-HYDROXY VITAMIN D COMPOUND” (priority 2007, published 2008):

What was measured:
[1] = test system: Vitamin D 24 hydroxylase (24-OH); test: Western blot of 24 hydroxylase expression in OVCAR 3 cells; format: cell-based, human; conditions: 18 hours, 100 nM Vitamin D, 25 μM progesterone, 25 μM Genistein
Excerpt: Protein was then extracted from the cells and 24-OH expression was the measured via Western Blot, and the degree of expression (band density) measured via a densitometer.

[2] = cited from earlier work
[3] = target: T1, 24 hydroxylase (24-OH) (Homo sapiens, UniProt Q07973); conditions: shown by others; cited from earlier work
T1 sequence (Q07973 36-514): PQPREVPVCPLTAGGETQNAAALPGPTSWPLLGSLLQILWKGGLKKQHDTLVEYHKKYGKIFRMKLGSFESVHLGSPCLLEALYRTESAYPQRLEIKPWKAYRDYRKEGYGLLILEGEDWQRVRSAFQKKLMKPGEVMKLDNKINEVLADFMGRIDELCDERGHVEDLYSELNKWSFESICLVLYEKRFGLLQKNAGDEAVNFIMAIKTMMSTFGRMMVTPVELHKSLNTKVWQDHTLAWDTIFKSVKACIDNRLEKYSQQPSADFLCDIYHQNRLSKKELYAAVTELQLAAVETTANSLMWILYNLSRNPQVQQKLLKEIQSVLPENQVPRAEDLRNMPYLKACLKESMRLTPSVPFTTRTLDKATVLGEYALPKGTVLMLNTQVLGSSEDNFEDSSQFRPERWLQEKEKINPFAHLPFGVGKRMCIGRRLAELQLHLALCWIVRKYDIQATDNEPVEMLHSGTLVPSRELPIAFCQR

[4] = test system: OVCAR 3 cells; test: MTS cell viability assay, OVCAR 3 cells; format: cell-based, human
Experimental: (§1) Progesterone and Vitamin D (1,25(OH)2 D3) were tested to determine their effect on cell lines derived from the human ovarian surface epithelium. […] This is shown in FIGS. 1-3 in both ovarian cancer cell lines (OVCAR 5 and OVCAR 3) as well as an immortalized cell cultures derived from the normal human ovarian epithelium (HIO-118V). There is a marked impact on cell viability when the two agents are combined and administered at a dosage that has a marginal impact for each agent given alone.

[5] = test system: OVCAR 5 cells; test: MTS cell viability assay, OVCAR 5 cells; format: cell-based, human
Experimental: as §1

[6] = test system: HIO-118V cells; test: MTS cell viability assay, immortalized human ovarian epithelial cells (HIO-118V); format: cell-based
Experimental: as §1

[7] = test system: HIO-118V cells; test: Apoptosis by TUNEL method, HIO-118V cells; format: cell-based, human; conditions: 45 uM progesterone, 1 uM Vitamin D
Experimental: In experiments to further understand the effect of progestin and vitamin D on cell viability, experiments were conducted to determine how progestin, vitamin D, and the combination act to induce apoptosis. In the experiment cells were incubated for 28 and 48 hours in the hormonal treatments as indicated and assessed for TUNEL reactivity. In these experiments, Apoptosis (TUNEL) data shown in conditions in which inhibitory effects via MTS were shown. In the example shown in FIG. 4, OVCAR 3 cells undergo a 7-fold increase in apoptosis at 48 hrs when treated with a combination of progesterone and vitamin D. HIO-118V cells show a 1.7-fold increase in apoptosis with 45 uM progesterone alone and a 1.9-fold increase with the combination of 1 uM Vitamin D and 45 uM progesterone.

[8] = 0.5 micrograms per day or 5 micrograms per week; cited from earlier work

Row | Compound | 24-OH expression (Western blot, band density) [1] | half life after oral administration [2] | cell viability (MTS assay) [4] | cell viability (MTS assay) [5] | cell viability (MTS assay) [6] | also measured
1 | 1,25-dihydroxyvitamin D3 [Vitamin D (1,25(OH)2 D3)] | markedly induced | – | – | – | – | –
2 | C=C1CC[C@H](O)C/C1=C/C=C1\CCC[C@]2(C)[C@@H]([C@H](C)CCCC(C)(C)O)CC[C@@H]12 [25(OH) D3, 25-hydroxyvitamin D3] | – | approximately 2 weeks | – | – | – | –
3 | O=c1c(-c2ccc(O)cc2)coc2cc(O)cc(O)c12 [Genistein, genistein] | – | – | – | – | – | inhibition of 24-OH [3]: inhibit 24-OH
4 | CC(=O)[C@H]1CC[C@H]2[C@@H]3CCC4=CC(=O)CC[C@]4(C)[C@H]3CC[C@]12C [Progesterone, progesterone] | causes both degradation and decreases production of 24 hydroxylase | – | inhibit cell viability in a dose response fashion | inhibit cell viability in a dose response fashion | inhibit cell viability in a dose response fashion | increase in apoptosis (TUNEL) [7]: 1.7 fold
5 | C=C1/C(=C\C=C2/CCC[C@]3(C)[C@@H]([C@H](C)CCCC(C)(C)O)CC[C@@H]23)C[C@@H](O)C[C@@H]1O [Vitamin D (1,25(OH)2 D3), 1,25-dihydroxyvitamin D3] | – | 5 to 8 h | inhibit cell viability in a dose response fashion | inhibit cell viability in a dose response fashion | inhibit cell viability in a dose response fashion | serum half-life ([2]; serum): 6 to 8 h; individuals developing hypercalcemia [8]: 1-3%
